According to patent US20220009980A1, “TP5, A PEPTIDE INHIBITOR OF ABERRANT AND HYPERACTIVE CDK5/P25 AS TREATMENT FOR CANCER” (The United States of America,as represented by the …, priority 2018, published 2022):

Experiments:
[1] = system: glioblastoma colonies; assay: Number and viability of glioblastoma colonies; assay type: cell-based; conditions: different amounts of TP5; FIG. 2
Experimental: (§1) The viability of glioblastoma cell line U251 following the administration of TP5 (SEQ ID NO: 1) was determined. TP5 scrambled (SEQ ID NO: 2) was used as a control.

[2] = system: glioblastoma cell line U251; assay: Early and late apoptosis in glioblastoma cell line U251; assay type: cell-based; conditions: FIG. 3
Experimental: The extent of early and late apoptosis in glioblastoma cell line U251 also was determined.

[3] = system: orthotopic glioblastoma; assay: Orthotopic glioblastoma mouse model; assay type: in vivo; conditions: for proliferation rate: 100 μM or 300 μM of TP5; for tumor volume: 100 μM or 300 μM of TP5, FIG. 5
Experimental: The effect of TP5 administration in an orthotopic glioblastoma mouse model additionally was determined. 100 μM or 300 μM of TP5 was administered to the mice and tumor volume and proliferation rate were investigated.

[4] = system: glioblastoma cell line U251; assay: Viability of glioblastoma cell line U251; assay type: cell-based; conditions: FIG. 1
Experimental: as §1

[5] = system: subcutaneous colorectal cancer; assay: Subcutaneous colorectal cancer mouse model; assay type: in vivo; conditions: FIG. 9
Experimental: The effect of TP5 administration alone or in combination with chemotherapy (Sn38; 7-ethyl-10-hydroxycamptothecin) in a subcutaneous colorectal cancer mouse model additionally was determined. TP5, Sn38, or TP5+Sn38 was administered to the mice and tumor volume and proliferation rate were investigated.

[6] = system: glioblastoma cell line U251; assay: DNA damage measured by expression of pH2Ax in U251; assay type: cell-based; conditions: FIG. 4
From the text: Although not wishing to be bound by any particular theory, TP5 is believed to increase DNA damage in a dose-dependent manner and impair DNA repair by reducing G2 phase and decreasing the phosphorylation of ATM.

[7] = system: colorectal carcinoma cell line HT29; assay: DNA damage measured by expression of pH2Ax in HT29; assay type: cell-based; conditions: FIG. 8
[8] = system: colorectal carcinoma cell line HT29; assay: Viability of colorectal carcinoma cell line HT29; assay type: cell-based; conditions: FIG. 6
Experimental: (§2) The viability of colorectal carcinoma cell line HT29 following the administration of TP5 (SEQ ID NO: 1) was determined. TP5 scrambled (SEQ ID NO: 2) was used as a control.

[9] = system: colorectal cancer colonies; assay: Number and viability of colorectal cancer colonies; assay type: cell-based; conditions: different amounts of TP5; FIG. 7
Experimental: as §2

Substance	number and viability of glioblastoma colonies [1]	early and late apoptosis [2]	proliferation rate [3]	tumor volume [3]	viability of glioblastoma cell line [4]	tumor volume [5]	DNA damage as measured by expression of pH2Ax [6]	DNA damage as measured by expression of pH2Ax [7]	viability of colorectal carcinoma cell line [8]	number and viability of colorectal cancer colonies [9]
TP5: P5, a small peptide that selectively inhibits aberrant and hyperactive CDK5/p25, modified to facilitate passage through blood brain barrier; SEQ ID NO: 1 (KEAFWDRCLSVINLMSSKMLQINAYARAARRAARR)	decreased the number and viability of glioblastoma colonies in a dose-dependent manner	increases the early and late apoptosis of glioblastoma cells	decreases the tumor volume and proliferation rate	decreases the tumor volume	decreased the viability of glioblastoma cell line in a dose-dependent manner	decreased the tumor volume of the mice	increases DNA damage in glioblastoma cell line U251 in a dose-dependent manner	increases DNA damage in colorectal carcinoma cell line HT29 in a dose-dependent manner	decreased the viability of glioblastoma cell line in a dose-dependent manner	decreased the number and viability of colorectal cancer colonies in a dose-dependent manner
TP5 scrambled: scrambled TP5 peptide (SEQ ID NO: 2) used as a control (FWDRCLSGKMSSKGGGINAYARAARRAARR) [reference compound]			but not TP5 scrambled decreases the tumor volume and proliferation rate	but not TP5 scrambled decreases the tumor volume	but not TP5 scrambled decreased the viability of glioblastoma cell line					
